Read-outs that look alike come from different tables or passages of the source.
Legend:
P. falciparum D6 (CQS) [1] = test: Inhibition of P. falciparum growth, CQS D6 (SYBR green I fluorescence); assay type: cell-based
Description: (§1) Inhibition of P. falciparum growth.
(§2) CQS (D6) and CQR (Dd2 and 7G8) P. falciparum maintained continuously in culture were used ([38]). […] The fluorescence readings were plotted against log(drug), and the IC50s were obtained from curve fitting performed by nonlinear regression using either Prism (GraphPad) or Excel (Microsoft) software.

P. falciparum Dd2 (CQR) [2] = test: Inhibition of P. falciparum growth, CQR Dd2 (SYBR green I fluorescence); assay type: cell-based
Description: as §1, §2

P. falciparum 7G8 (CQR) = test: Inhibition of P. falciparum growth, CQR 7G8 (SYBR green I fluorescence); assay type: cell-based, Plasmodium falciparum
Description: as §1, §2

P. falciparum D6 (CQS) [3] = conditions: ref Andrews et al. (32); cited from earlier work
mouse spleen lymphocytes [4] = conditions: ref Andrews et al. (32); cited from earlier work
P. falciparum Dd2 (CQR) [5] = conditions: ref Andrews et al. (32); cited from earlier work
mouse spleen lymphocytes [6] = test: Cytotoxicity against mouse spleen lymphocytes; assay type: cell-based; conditions: estimated ±50%
[7] = Single-dose toxicity evaluation in mice; assay type: in vivo; conditions: for Toxicity observation: single-dose experiments on 1 or 2 mice/compound, doses limited by water solubility
Description: (§3) The compounds were first converted to water-soluble hydrochloride or phosphate salts for administration in aqueous solution. Efficacy testing was carried out using 4 different dose levels with 5 mice at each level, administered by oral gavage. […] A single-dose toxicity evaluation was also performed, using 1 or 2 mice in each case.

[8] = In vitro heme binding (optical titration); conditions: 5 μM heme, phosphate buffer 100 mM, pH 5.7; read-out: heme binding dissociation constant (Kd)
Description: In vitro heme binding and β-hematin inhibition.
A 5 mM stock solution of heme was prepared by dissolving heme chloride in 0.1 mM NaOH by incubation at 37°C for 30 min. The solution was stored at 4°C for no more than 1 month. At the beginning of each experiment, the stock heme solution was diluted to 5 μM in phosphate buffer (100 mM, pH 5.7) and allowed to equilibrate for 4 h. The 4-h equilibration allowed for the initial heme absorbance to stabilize prior to beginning the titration. Optical titrations with each compound were performed by successive addition of aliquots of its stock solution to the 5 μM heme solution. […] Equilibrium binding constants were determined by nonlinear least-squares analysis ([39]).

P. yoelii = test: In vivo 3-day suppressive test against P. yoelii in a murine malaria model; set-up: species or system Plasmodium yoelii; conditions: mice, oral gavage, 3 daily doses, water-soluble hydrochloride or phosphate salts; errors estimated ±20%
Description: as §3, with “A selection of the compounds (compounds 9, 10, 12, 21, 23, and 24) was tested in vivo against P. yoelii in a murine malaria model. The” for “The”, “case. The doses were limited by water solubilities.” for “case.”
In vivo 3-day suppressive test.
Female CF-1 mice, at 4 to 5 weeks of age, were injected intravenously with 10^6 erythrocytes infected with P. yoelii ([43][–][45]). The following day, and then daily for a total of 3 doses, 5 mice each were administered the appropriate dose of the compound by gavage and evaluated by direct microscopic analysis of Giemsa-stained blood smears ([46]) 1 day after the final dose. The Portland State University Institutional Animal Care and Use Committee approved the protocols involving animals used in this study.

[9] = Plasmodium falciparum, D6, 72 h; read-out: IC50 (nM) for P. falciparum D6
[10] = Plasmodium falciparum, DD2, 72 h; read-out: IC50 (nM) for P. falciparum Dd2
[11] = Plasmodium falciparum, D6; read-out: IC50 from dose-response curve against CQS D6 (Fig 4a)
[12] = Plasmodium falciparum, DD2; read-out: IC50 from dose-response curve against CQR Dd2 (Fig 4b)
[13] = Plasmodium falciparum, 7G8, 72 h, read-out: IC50 (nM) for P. falciparum 7G8

Structure (SMILES)	IC50 (P. falciparum D6 (CQS) [1]; [9]) [nM]	IC50 (P. falciparum Dd2 (CQR) [2]; [10]) [nM]	IC50 (P. falciparum 7G8 (CQR); [13]) [nM]	also measured
CCN(CC)CCCC(C)Nc1ccnc2cc(Cl)ccc12 (centres unmarked) [CQ, chloroquine]	–	–	–	IC50 (P. falciparum D6 (CQS) [1]; Plasmodium falciparum, D6, 72 h, read-out: IC50 (nM) for P. falciparum D6): 6.9 nM; IC50 (P. falciparum D6 (CQS) [1]; Plasmodium falciparum, D6, read-out: IC50 from dose-response curve against CQS D6 (Fig 4a)): 7.9 nM; IC50 (P. falciparum Dd2 (CQR) [2]; Plasmodium falciparum, DD2, 72 h, read-out: IC50 (nM) for P. falciparum Dd2): 102 nM; IC50 (P. falciparum Dd2 (CQR) [2]; Plasmodium falciparum, DD2, read-out: IC50 from dose-response curve against CQR Dd2 (Fig 4b)): 71.7 nM; IC50 (P. falciparum 7G8 (CQR); Plasmodium falciparum, 7G8, 72 h, read-out: IC50 (nM) for P. falciparum 7G8, CQR 7G8, 72 h, averages from at least 3 runs, normalized to CQ 108 nM, uncertainty ±15%): 106 nM; IC50 (P. falciparum 7G8 (CQR); read-out: IC50 (nM) for P. falciparum 7G8, CQR 7G8, 72 h, averages from at least 3 runs, normalized to CQ 108 nM, uncertainty ±15%): 108 nM
O=C(CNCCNc1ccnc2cc(Cl)ccc12)N(Cc1ccccc1)Cc1ccccc1 [Compound 2]	–	–	–	IC50 (P. falciparum D6 (CQS) [3]): 14 nM; Cytotoxicity (mouse spleen lymphocytes [4]): 62,000 nM; IC50 (P. falciparum Dd2 (CQR) [5]): 16 nM
Clc1ccc2c(NCCCN3CCN(c4ccccc4-c4ccccc4)CC3)ccnc2c1 [Compound 6, N-(3-(4-(Biphenyl-2-yl)piperazin-1-yl)propyl)-7-chloroquinolin-4-amine]	1.2	2.6	–	Cytotoxicity (mouse spleen lymphocytes [6]): 1,700 nM
Clc1ccc2c(NCCCN3CCN(c4cccc(-c5ccccc5)c4)CC3)ccnc2c1 [Compound 7, N-(3-(4-(Biphenyl-3-yl)piperazin-1-yl)propyl)-7-chloroquinolin-4-amine]	0.9	1.8	–	Cytotoxicity (mouse spleen lymphocytes [6]): 2,100 nM
Clc1ccc2c(NCCCN3CCN(c4ccc(-c5ccccc5)cc4)CC3)ccnc2c1 [Compound 8, N-(3-(4-(Biphenyl-4-yl)piperazin-1-yl)propyl)-7-chloroquinolin-4-amine]	0.6	0.9	0.2	IC50 (P. falciparum D6 (CQS) [1]; [11]): 0.7 nM; IC50 (P. falciparum Dd2 (CQR) [2]; [12]): 0.7 nM; Cytotoxicity (mouse spleen lymphocytes [6]): 2,200 nM
Clc1ccc2c(NCCCN3CCN(c4ccccc4)CC3)ccnc2c1 [Compound 9, 7-Chloro-N-(3-(4-phenylpiperazin-1-yl)propyl)quinolin-4-amine]	0.4	0.7	0.6	IC50 (P. falciparum D6 (CQS) [1]; [11]): 0.5 nM; Toxicity observation [7]: Well tolerated at 300 mg/kg; dose without evident toxicity as multiple of the ED50 ([7]; single-dose toxicity screen in mice vs ED50 against P. yoelii): 150 fold; IC50 (P. falciparum Dd2 (CQR) [2]; [12]): 0.5 nM; Kd [8]: ~5000 nM; Cytotoxicity (mouse spleen lymphocytes [6]): 6,400 nM; ED50 (P. yoelii): 2 mg/kg/day
Clc1ccc(N2CCN(CCCNc3ccnc4cc(Cl)ccc34)CC2)cc1 [Compound 10, 7-Chloro-N-(3-(4-(4-chlorophenyl)piperazin-1-yl)propyl)quinolin-4-amine]	0.3	0.5	0.1	Toxicity observation [7]: Death at 260 mg/kg, delayed death of 2/4 mice at 64 mg/kg; ED50 (P. yoelii): 8 mg/kg/day
Fc1ccc(N2CCN(CCCNc3ccnc4cc(Cl)ccc34)CC2)cc1 [Compound 11, 7-Chloro-N-(3-(4-(4-fluorophenyl)piperazin-1-yl)propyl)quinolin-4-amine]	2	0.2	0.2	Kd [8]: ~5000 nM
COc1ccc(N2CCN(CCCNc3ccnc4cc(Cl)ccc34)CC2)cc1 [Compound 12, 7-Chloro-N-(3-(4-(4-methoxyphenyl)piperazin-1-yl)propyl)quinolin-4-amine]	1.3	0.3	0.3	Toxicity observation [7]: Well tolerated at 500 mg/kg; Kd [8]: ~5000 nM; ED50 (P. yoelii): 10 mg/kg/day
FC(F)(F)c1ccc(N2CCN(CCCNc3ccnc4cc(Cl)ccc34)CC2)cc1 [Compound 13, 7-Chloro-N-(3-(4-(4-(trifluoromethyl)phenyl)piperazin-1-yl)propyl)quinolin-4-amine]	0.06	0.2	0.3	Kd [8]: ~5000 nM
O=[N+]([O-])c1ccc(N2CCN(CCCNc3ccnc4cc(Cl)ccc34)CC2)cc1 [Compound 14, 7-Chloro-N-(3-(4-(4-nitrophenyl)piperazin-1-yl)propyl)quinolin-4-amine]	0.9	0.8	0.3	–
Cc1ccc(N2CCN(CCCNc3ccnc4cc(Cl)ccc34)CC2)cc1 [Compound 15, 7-Chloro-N-(3-(4-p-tolylpiperazin-1-yl)propyl)quinolin-4-amine]	0.1	1.3	0.5	–
Clc1ccc2c(NCCCN3CCN(Cc4ccccc4)CC3)ccnc2c1 [Compound 17, N-(3-(4-Benzylpiperazin-1-yl)propyl)-7-chloroquinolin-4-amine]	2.4	7	9	–
Clc1ccc2c(NCCCN3CCN(CCc4ccccc4)CC3)ccnc2c1 [Compound 18, 7-Chloro-N-(3-(4-phenethylpiperazin-1-yl)propyl)quinolin-4-amine]	0.5	1	1.2	–
Clc1ccc2c(NCCCN3CCN(Cc4cccc5ccccc45)CC3)ccnc2c1 [Compound 19, 7-Chloro-N-(3-(4-(naphthalen-1-ylmethyl)piperazin-1-yl)propyl)quinolin-4-amine]	1.1	1.1	0.8	–
O=C(c1ccccc1)N1CCN(CCCNc2ccnc3cc(Cl)ccc23)CC1 [Compound 20, N-(3-(4-Benzoylpiperazin-1-yl)propyl)-7-chloroquinolin-4-amine]	4	7	7	–
Clc1ccc2c(NCCCN3CCN(c4ccccn4)CC3)ccnc2c1 [Compound 21, 7-Chloro-N-(3-(4-(pyridin-2-yl)piperazin-1-yl)propyl)quinolin-4-amine]	0.7	1.1	0.9	Toxicity observation [7]: Well tolerated at 435 mg/kg; Cytotoxicity (mouse spleen lymphocytes [6]): 13,300 nM; ED50 (P. yoelii): 6 mg/kg/day
Clc1ccc2c(NCCCN3CCN(c4ccncc4)CC3)ccnc2c1 [Compound 22, 7-Chloro-N-(3-(4-(pyridin-4-yl)piperazin-1-yl)propyl)quinolin-4-amine]	0.5	1.6	1.1	–
Clc1ccc2c(NCCCN3CCN(c4ncccn4)CC3)ccnc2c1 [Compound 23, 7-Chloro-N-(3-(4-(pyrimidin-2-yl)piperazin-1-yl)propyl)quinolin-4-amine]	1.4	2.3	–	Cytotoxicity (mouse spleen lymphocytes [6]): 28,000 nM; ED50 (P. yoelii): 7 mg/kg/day
O=[N+]([O-])c1ccc(N2CCN(CCCNc3ccnc4cc(Cl)ccc34)CC2)nc1 [Compound 24, 7-Chloro-N-(3-(4-(5-nitropyridin-2-yl)piperazin-1-yl)propyl)quinolin-4-amine]	0.3	0.5	0.5	Toxicity observation [7]: Well tolerated at 153 mg/kg^c; ED50 (P. yoelii): 3 mg/kg/day
FC(F)(F)c1ccc(N2CCN(CCCNc3ccnc4cc(Cl)ccc34)CC2)nc1 [Compound 25, 7-Chloro-N-(3-(4-(5-(trifluoromethyl)pyridin-2-yl)piperazin-1-yl)propyl)quinolin-4-amine]	0.5	0.9	1	–
O=[N+]([O-])c1cnc(N2CCN(CCCNc3ccnc4cc(Cl)ccc34)CC2)c([N+](=O)[O-])c1 [Compound 26, 7-Chloro-N-(3-(4-(3,5-dinitropyridin-2-yl)piperazin-1-yl)propyl)quinolin-4-amine]	0.5	0.9	0.9	–
O=[N+]([O-])c1ccc(N2CCN(CCCNc3ccnc4cc(Cl)ccc34)CC2)c([N+](=O)[O-])c1 [Compound 27, 7-Chloro-N-(3-(4-(2,4-dinitrophenyl)piperazin-1-yl)propyl)quinolin-4-amine]	0.3	0.5	0.4	–

— publication PMC5404532, “Simplified Reversed Chloroquines To Overcome Malaria Resistance to Quinoline-Based Drugs” (Antimicrobial Agents and Chemotherapy, 2017)
